Test results reported in US10286084B2, “Compositions for the inactivation of virus replication and methods of making and using the same” (priority 2014, dated 2019).
Where a name gives a salt, the structure may show the parent alone. Read-outs that look alike come from different tables or passages of the source.

How the values were obtained:
Type in all cases: cell-based
HBV = HBV DNA release into supernatant of transduced HBV2.2.15 cells, with or without antivirals; conditions: compound 1 μM, relative to untreated N.S. sgRNA cells, average ± SD; for inhibition at 1 µM: Hepatitis B virus
Protocol: HepAD38 or HBV2.2.15 cells were transduced with lentiviral vectors expressing a puromycin resistance gene as well as Spy Cas9 and an sgRNA, as described above, at 85-90% confluency after growth in medium lacking Tet for 48 h, to ensure expression of HBV mRNAs and DNA. Beginning at 48 h post-transduction, cells were selected in 4 μg/ml puromycin (Life Technologies) for 10 days to eliminate any non-transduced cells. Supernatant media and cells were then harvested for ELISA and real-time PCR assays. Control cells including non-transduced HepAD38 cells were included as positive controls for HBV replication (in medium lacking Tet) or virtual absence of HBV replication (in medium containing Tet). Non-transduced HBV 2.2.15 cells were included as a control in experiments where relevant.
On day 7, total DNA was purified from supernatant using a commercially available kit (DNeasy Blood & Tissue kit, Qiagen). The HBV DNA was amplified in a real-time PCR assay using the AB 7900HT sequence detection system (Applied Biosystems) or the LightCycler 480 (Roche) as described by Stuyver et al. (2002). All samples were tested in duplicate. The concentration of compound that inhibited HBV DNA replication by 50% (EC50) or 90% (EC90) was determined by linear regression. HBV log viral reduction was also determined.
After transduction with Cas9/sgRNA expressing lentiviral constructs and selection, we observed that extracellular levels of HBV DNA were suppressed by ˜98%, ˜80%, and ˜90%, respectively, by the RT, surface Ag, and core specific Cas9/sgRNA combinations (Table 1).

[1] = system: HPV-18 E6 or E7 gene target; assay: FLuc indicator assay in 293T cells, Spy Cas9 sgRNAs expressed from U6 or tRNA promoters; conditions: Spy Cas9, 72 h, promoter driving the sgRNA varied
From the text: (§1) Human tRNA sequences were obtained from the Genomic tRNA database and the MHV tRNA-7 sequence was obtained from Bogerd et al. 2010. (Mol. Cell 37, p135-142, 2010). To generate a tRNA-sgRNA expression construct, overlapping oligonucleotides were assembled to create a tRNA fused to an sgRNA scaffold and a pol III termination signal. Between the tRNA and the sgRNA scaffold, two BsmBI or BbsI sites were incorporated to allow for the insertion of variable targeting sequences. tRNA-sgRNA cassettes were then cloned into Cas9 expression vectors pCMVSau (discussed more fully below), pCMVNme, or pX330 (Addgene, plasmid #42230) expressing S. aureus, N. meningitidis, or S. pyogenes Cas9, respectively. In the case of pX330 the U6 promoter was exchanged for the tRNA-sgRNA cassette.
(§2) Reporter assays with 293T cells were performed by using the calcium phosphate transfection method. Briefly, 293T cells were plated at ˜1.25×10^5 cells per well in 12-well plates and transfected with a 4:1 ratio of the RGN expression plasmid to the FLuc-based indicator plasmid as well as 10 ng of a RLuc plasmid. Transfected 293T cells were then harvested 72 hours post transfection in Passive Lysis Buffer (Promega) and assayed for both FLuc and RLuc activity (Promega Dual-Luciferase Reporter Assay System) with RLuc serving as an internal control and normalization factor.
Initially we generated predicted fusion transcripts consisting of a human glutamine tRNA (SEQ ID NO: 41), a human histidine tRNA (SEQ ID NO: 44) or an MHV68 tRNA (M1-7; SEQ ID NO: 50)) linked to Spy Cas9 sgRNAs specific for a target DNA sequence derived either from the human papillomavirus serotype 18 (HPV-18) E6 or E7 gene (SEQ ID NO: 8 and 10, respectively), as described above. Indicator plasmids consisting of these viral target sequences linked to the FLuc gene, constructed as described above, were then co-transfected into 293T cells along with a plasmid encoding Spy Cas9, plasmids encoding each of the tRNA promoters, or the U6 promoter, linked to the same sgRNA and finally a RLuc-based internal control plasmid. Cells were harvested at 72 h post-transfection and FLuc and RLuc levels determined.

HSV-1 ICP0 gene = assay: FLuc indicator assay in 293T cells, Sau Cas9 sgRNA expressed from various tRNAs; conditions: Sau Cas9, identical HSV-1 ICP0 sgRNA (SEQ ID NO: 16), tRNA promoter varied
From the text: as §1, §2
As such Sau encodes a promising Cas9 gene for potential use in AAV vectors. To analyze whether we could also produce active Sau sgRNAs using tRNA promoters, we expressed the identical Sau sgRNA, specific for a target within the HSV-1 ICP0 gene (SEQ ID NO: 16), using a wide range of human tRNAs. […] The reason for the lower efficiency of processing seen with all of these tRNA:sgRNA fusions is currently unclear, but could relate to the single invariant sgRNA sequence used in this experiment.

[2] = HBV2.2.15 cells expressing Cas9 and HBV RT sgRNA, read-out: Percent inhibition of HBV DNA release into the supernatant medium, HBV RT sgRNA
[3] = HBV2.2.15 cells expressing Cas9 and HBV core sgRNA, read-out: Percent inhibition of HBV DNA release into the supernatant medium, HBV core sgRNA
[4] = HBV2.2.15 cells expressing Cas9 and HBV surface sgRNA, read-out: Percent inhibition of HBV DNA release into the supernatant medium, HBV surface sgRNA
[5] = HBV2.2.15 cells expressing Cas9 and N.S. sgRNA, triplicate, read-out: Percent inhibition of HBV DNA release into the supernatant medium, N.S. sgRNA

CC(C)OC(=O)OCOP(=O)(CO[C@H](C)Cn1cnc2c(N)ncnc21)OCOC(=O)OC(C)C [TDF, tenofovir disoproxil fumarate]
inhibition at 1 µM (HBV; [2]): 98.9 ± 0.2%
inhibition at 1 µM (HBV; [3]): 97 ± 0.3%
inhibition at 1 µM (HBV; [4]): 95.9 ± 0.7%
inhibition at 1 µM (HBV; [5]): 68.1 ± 1.5%

C=C1[C@H](CO)[C@@H](O)C[C@@H]1n1cnc2c(=O)[nH]c(N)nc21 [ETV, entecavir]
inhibition at 1 µM (HBV; [2]): 98.5 ± 1%
inhibition at 1 µM (HBV; [3]): 97.9 ± 0.6%
inhibition at 1 µM (HBV; [4]): 97.6 ± 1.1%
inhibition at 1 µM (HBV; [5]): 78.3 ± 7.9%

Nc1ccn([C@@H]2CS[C@H](CO)O2)c(=O)n1 [3TC, lamivudine]
inhibition at 1 µM (HBV; [2]): 99.1 ± 0.03%
inhibition at 1 µM (HBV; [3]): 97.1 ± 0.5%
inhibition at 1 µM (HBV; [4]): 96.3 ± 0.1%
inhibition at 1 µM (HBV; [5]): 61.4 ± 6.2%

COC(=O)C1=C(CN2CCOCC2)NC(c2ccccn2)=NC1c1ccc(F)cc1Cl (stereo not shown) [HAP12, heteroaryldihydropyrimidine]
Percent inhibition of HBV DNA release into the supernatant medium, HBV RT sgRNA (HBV; HBV2.2.15 cells expressing Cas9 and HBV RT sgRNA): 97.5 ± 0.7%
Percent inhibition of HBV DNA release into the supernatant medium, HBV core sgRNA (HBV; HBV2.2.15 cells expressing Cas9 and HBV core sgRNA): 97.6 ± 0.1%
Percent inhibition of HBV DNA release into the supernatant medium, HBV surface sgRNA (HBV; HBV2.2.15 cells expressing Cas9 and HBV surface sgRNA): 98.0 ± 0.3%
Percent inhibition of HBV DNA release into the supernatant medium, N.S. sgRNA (HBV; HBV2.2.15 cells expressing Cas9 and N.S. sgRNA, triplicate): 77.5 ± 5.2%

B1: U6 promoter: U6 pol III promoter, ~254 bp, SEQ ID NO: 51, driving sgRNA transcription (nucleic acid)
DNA: TCTAGAGAGGGCCTATTTCCCATGATTCCTTCATATTTGCATATACGATACAAGGCTGTTAGAGAGATAATTGGAATTAATTTGACTGTAAACACAAAGATATTAGTACAAAATACGTGACGTAGAAAGTAATAATTTCTTGGGTAGTTTGCAGTTTTAAAATTATGTTTTAAAATGGACTATCATATGCTTACCGTAACTTGAAAGTATTTCGATTTCTTGGCTTTATATATCTTGTGGAAAGGACGAAACACC
modifications: Synthetic U6 Promoter
knockdown of E6- and E7-based FLuc indicator constructs [1]: effective and comparable knockdown

B2: tRNATYR: human tRNA promoter, SEQ ID NO: 49, fused to sgRNA (nucleic acid)
DNA: GTCAGTGTTGCACAACGGTTAAGTGAAGAGGCTGTAAACCCAGACTGGATGGGTTCAATTCCCATCTCTGCCG
modifications: expressed or natural sequence
knockdown of FLuc indicator (HSV-1 ICP0 gene): little or no detectable knockdown

B3: tRNAHIS: human histidine tRNA promoter (SEQ ID NO: 44) fused to sgRNA (nucleic acid)
DNA: GCCGTGATCGTATAGTGGTTAGTACTCTGCGTTGTGGCCGCAGCAACCTCGGTTCGAATCCGAGTCACGGCA
modifications: expressed or natural sequence
knockdown of E6- and E7-based FLuc indicator constructs [1]: slightly less effective

B4: tRNACYS: human tRNA promoter, SEQ ID NO: 48, fused to sgRNA (nucleic acid)
DNA: GGGGGTATAGCTCAGGGGTAGAGCATTTGACTGCAGATCAAGAGGTCCCCAGTTCAAATCTGGGTGCCCCCT
modifications: expressed or natural sequence
knockdown of FLuc indicator (HSV-1 ICP0 gene): readily detectable knockdown

B5: tRNAMHV-7: MHV68 tRNA promoter (SEQ ID NO: 50) fused to sgRNA (nucleic acid)
DNA: GCCAGGGTAGCTCAATTGGTAGAGCATCAGGCTAGTATCCTGTCGGTTCCGGTTCAAGTCCGGGCCCTGGTT
modifications: expressed or natural sequence
knockdown of E6- and E7-based FLuc indicator constructs [1]: effective and comparable knockdown

B6: tRNAGLU: human tRNA promoter, SEQ ID NO: 46, fused to sgRNA (nucleic acid)
DNA: TCCCTGGTGGTCTAGTGGTTAGGATTCGGCGCTCTCACCGCCGCGGCCCGGGTTCGATTCCCGGTCAGGGAA
modifications: expressed or natural sequence
knockdown of FLuc indicator (HSV-1 ICP0 gene): strong knockdown

B7: tRNAGLN: human glutamine tRNA promoter (SEQ ID NO: 41) fused to sgRNA (nucleic acid)
DNA: GGTTCCATGGTGTAATGGTTAGCACTCTGGACTCTGAATCCAGCGATCCGAGTTCAAATCTCGGTGGAACCT
modifications: expressed or natural sequence
knockdown of E6- and E7-based FLuc indicator constructs [1]: effective and comparable knockdown
knockdown of FLuc indicator (HSV-1 ICP0 gene): strong knockdown

B8: tRNAGLN2: human tRNA promoter, SEQ ID NO: 45, fused to sgRNA (nucleic acid)
DNA: B7 DNA
modifications: expressed or natural sequence
knockdown of FLuc indicator (HSV-1 ICP0 gene): strong knockdown
